From ChEMBL document CHEMBL1133342, “A convenient extension of the Wessely-Moser rearrangement for the synthesis of substituted alkylaminoflavones as neuroprotective agents in vitro” (Bioorg Med Chem Lett, 2000)

Assays:
[1] = Maximum tolerated concentration in vitro against murine HT-22 hippocampal cell cultures by LDH assay; format: functional, Mus musculus, Hippocampus
[2] = Compound was tested in vitro for neuroprotective activity against L-homocysteic acid cytotoxicity in murine HT-22 hippocampal cell cultures by MTT reduction assay; format: functional, Mus musculus, Hippocampus
[3] = Maximum tolerated concentration in vitro against murine HT-22 hippocampal cell cultures by MTT reduction assay; format: functional, Mus musculus, Hippocampus
[4] = Compound was tested in vitro for intrinsic neurotoxicity against murine HT-22 hippocampal cell cultures by LDH assay; parameters: species or system Hippocampus; settings: mouse, HT-22 hippocampal cells; read-out: TC50 (the source's name)
[5] = Compound was tested in vitro for intrinsic neurotoxicity against murine HT-22 hippocampal cell cultures by MTT reduction assay; parameters: species or system Hippocampus; settings: mouse, HT-22 hippocampal cells; read-out: TC50 (the source's name)
[6] = Compound was tested in vitro for neuroprotective activity against L-homocysteic acid cytotoxicity in murine HT-22 hippocampal cell cultures by LDH assay; format: functional, Mus musculus, Hippocampus

CC(C)CCNc1c(O)cc(O)c2c(=O)cc(-c3ccccc3)oc12
MTC [1]: 10 µM
PC50 [2]: 5.3 µM
MTC [3]: 10 µM
CC50 [4]: 16 µM
CC50 [5]: 12 µM
PC50 [6]: 5.5 µM

CCCNc1c(O)cc(O)c2c(=O)cc(-c3ccccc3)oc12
MTC [1]: 25 µM
PC50 [2]: 7 µM
MTC [3]: 5 µM
CC50 [4]: 28 µM
CC50 [5]: 14 µM
PC50 [6]: 8 µM

CC(C)CCNc1c(O)cc2oc(-c3ccccc3)cc(=O)c2c1O
MTC [1]: 100 µM
PC50 [2]: 5.2 µM
MTC [3]: 5 µM
CC50 [4]: 116 µM
CC50 [5]: 16 µM
PC50 [6]: 5.2 µM

CC(C)Nc1c(O)cc2oc(-c3ccccc3)cc(=O)c2c1O
MTC [1]: 100 µM
PC50 [2]: 5.1 µM
MTC [3]: 10 µM
CC50 [4]: 152 µM
CC50 [5]: 18 µM
PC50 [6]: 6.6 µM

C=CCNc1c(O)cc(O)c2c(=O)cc(-c3ccccc3)oc12
MTC [1]: 10 µM
PC50 [2]: >5 µM
MTC [3]: 5 µM
CC50 [4]: 11 µM
CC50 [5]: 18 µM
PC50 [6]: >10 µM

CCCNc1c(O)cc2oc(-c3ccccc3)cc(=O)c2c1O
MTC [1]: 100 µM
PC50 [2]: 5.2 µM
MTC [3]: 5 µM
CC50 [4]: 176 µM
CC50 [5]: 10 µM
PC50 [6]: 5.5 µM

CC(C)CNc1c(O)cc(O)c2c(=O)cc(-c3ccccc3)oc12
MTC [1]: 10 µM
PC50 [2]: 4.6 µM
MTC [3]: 10 µM
CC50 [4]: 12 µM
CC50 [5]: 12 µM
PC50 [6]: 4.2 µM
